Measured values: patent US20100179095A1, “USE OF FOLATES FOR PRODUCING A PREPARATION SUITABLE FOR PREVENTING AND TREATING INFLAMMATION AND DISEASES ASSOCIATED WITH INFLAMMATION, ESPECIALLY FOR INFLUENCING THE INFLAMMATION MARKERS CRP AND SAA” (priority 2002, published 2010)
Where two headings read alike, the source gives them in different places.

What was measured:
[1] = system: C-reactive protein (CRP); assay: Clinical study in haemodialysis patients: plasma CRP (immuno-nephelometry, N High Sensitivity CRP); assay type: in vivo, human; settings: for CRP Median / CRP MW (mean): plasma, haemodialysis patients
Excerpt: (§1) For the individual patient, the values before therapy were compared, pair-wise, with those after 3 and 6 weeks of therapy.

[2] = system: serum amyloid A protein (SAA); assay: Clinical study in haemodialysis patients: plasma SAA (immuno-nephelometry, N Latex SAA); assay type: in vivo, human; settings: for SAA MW (mean) / SAA Median: plasma, haemodialysis patients
Excerpt: as §1

[3] = system: homocysteine (total) (Hcys); assay: Clinical study in haemodialysis patients: plasma homocysteine (total); assay type: in vivo, human
Procedure: For the patients for whom all the measured values could be ascertained completely at any time, a “matched pair” analysis was performed in addition. For the individual patient, the values before therapy were compared, pair-wise, with those after 3 and 6 weeks of therapy.

[4] = system: inflammation markers CRP and SAA; settings: haemodialysis patients, 6 weeks of folate therapy
Excerpt: Clinical data were obtained via the prospective, randomised double blind study described below.
141 patients with terminal renal insufficiency, who were being treated with chronic haemodialysis on 3 days each week, and who were between 24 and 90 years old, were divided randomly into 4 therapy groups according to the sex of the patient and the presence or absence of a C677T point mutation on the gene for methylene tetrahydrofolate reductase. Randomisation based on the methylene tetrahydrofolate reductase mutation was effected in order to prevent an imbalance occurring within the individual therapy groups with regard to enzyme activity and thus with regard to folic acid metabolism also. […]
The first blood sample in the study was taken before the commencement of the administration of additional vitamins. […] The following measured quantities were each determined from plasma samples from the 3 blood samples taken: • homocysteine (total) (Hcys) • total folate (Fol) • vitamin B12 (B12) • vitamin B6 (B6) • neopterin (NEOP) • creatinine (Krea) • LDL- and HDL-cholesterol (HDL-Choi, LDL-Chol) • triglyceride (TG) • C-reactive protein (CRP) • amyloid A protein (SAA) […]
CRP and SAA were both measured by means of immuno-nephelometry and tests supplied by DadeBehring (N High Sensitivity CRP and N Latex SAA assays).

[5] = 3 w vs 6 w, value after 3 weeks vs value after 6 weeks
[6] = BL vs 3 w, initial value vs value after 3 weeks
[7] = BL vs 6 w, initial value vs value after 6 weeks
[8] = BL baseline before folate therapy
[9] = BL baseline before folate therapy, basic vitamin preparation in all
[10] = after 3 weeks (3 w) of therapy, 15 mg FTHF or MTHF, 7.5 mg PGA per day plus basic vitamin preparation
[11] = after 6 weeks (6 w) of therapy, 15 mg FTHF or MTHF, 7.5 mg PGA per day plus basic vitamin preparation

Row | Structure (SMILES) | CRP matched pair analysis, significance of difference [1, 5] | CRP matched pair analysis, significance of difference [1, 6] | CRP matched pair analysis, significance of difference [1, 7] | CRP Median [1, 8] | CRP MW (mean) [1, 9] | CRP Median ([1]; after 3 weeks (3 w) of therapy) | CRP MW (mean) [1, 10] | CRP Median ([1]; after 6 weeks (6 w) of therapy) | CRP MW (mean) [1, 11] | SAA matched pair analysis, significance of difference [2, 5] | SAA matched pair analysis, significance of difference [2, 6] | SAA matched pair analysis, significance of difference [2, 7] | SAA MW (mean) [2, 8] | SAA Median [2, 8] | SAA MW (mean) ([2]; after 3 weeks (3 w) of therapy) | SAA Median ([2]; after 3 weeks (3 w) of therapy) | SAA MW (mean) ([2]; after 6 weeks (6 w) of therapy) | SAA Median ([2]; after 6 weeks (6 w) of therapy) | Hcys matched pair analysis, significance of difference [3, 5] | Hcys matched pair analysis, significance of difference [3, 6] | further results
1 | Nc1nc2c(c(=O)[nH]1)N(C=O)[C@H](CNc1ccc(C(=O)N[C@@H](CCC(=O)O)C(=O)O)cc1)CN2 (mixture of isomers) [FTHF, 5-formyl-(6R,S)-tetrahydrofolic acid] | Ø | * (p < 0.05) | Ø | 9 mg/L | 16 mg/L | 5 mg/L | 9 mg/L | 6 mg/L | 18 mg/L | * (p < 0.05) | * (p < 0.05) | Ø | 28 mg/L | 6 mg/L | 8 mg/L | 4 mg/L | 35 mg/L | 6 mg/L | Ø | * (p < 0.05) | Hcys matched pair analysis, significance of difference [3, 7]: ** (p < 0.01)
2 | CN1c2c(nc(N)[nH]c2=O)NC[C@H]1CNc1ccc(C(=O)N[C@@H](CCC(=O)O)C(=O)O)cc1 (mixture of isomers) [MTHF, 5-methyl-(6R,S)-tetrahydrofolic acid] | * (p < 0.05) | * (p < 0.05) | ** (p < 0.01) | 11 mg/L | 19 mg/L | 8 mg/L | 11 mg/L | 7 mg/L | 9 mg/L | Ø | Ø | Ø | 34 mg/L | 11 mg/L | 19 mg/L | 10 mg/L | 13 mg/L | 9 mg/L | Ø | Ø | Hcys matched pair analysis, significance of difference [3, 7]: * (p < 0.05); effect on inflammation markers CRP and SAA (acute phase response), in words [4]: reduce the acute phase response; effect on inflammation markers CRP and SAA (acute phase response), in words ([4]; listed as 5-methyl-(6R,S)-tetahydrofolic acid): most pronounced decrease in inflammation markers
3 | Nc1nc2ncc(CNc3ccc(C(=O)N[C@@H](CCC(=O)O)C(=O)O)cc3)nc2c(=O)[nH]1 [PGA, folic acid] | Ø | Ø | Ø | 7 mg/L | 10 mg/L | 8 mg/L | 10 mg/L | 6 mg/L | 9 mg/L | * (p < 0.05) | Ø | Ø | 11 mg/L | 7 mg/L | 12 mg/L | 6 mg/L | 13 mg/L | 10 mg/L | Ø | * (p < 0.05) | Hcys matched pair analysis, significance of difference [3, 7]: * (p < 0.05)
